Patent US11292803B2, “Bioreducible N-oxide-based probes for imaging of hypoxia” (THE BOARD OF TRUSTEES OF THE UNIVERSITY OF ILLINOIS, priority 2018, dated 2022)

Tests used:
[1] = Stability in human plasma; type: in vitro ADME; settings: 10 μM solution supplemented with human plasma, 37° C., 3 hours
Procedure: FIG. 12. Fluorescence intensity (Ex.=670 nm) of HyP-1 (2 μM) at the indicated time points during incubation in 0.1 M potassium phosphate buffer (pH 7.4) supplemented with human plasma (20% v/v) at 37° C. for 3 h.
(§1) In addition to Fe(II), the response of HyP-1 to a variety of alkali, alkaline earth and transition metals was also determined. […] To further evaluate the stability of HyP-1, a 10 μM solution of the probe was exposed to ambient light and temperature for up to 5 days. Additionally, a 10 μM solution of HyP-1 supplemented with human plasma was incubated at 37° C. for 3 hours. […] As mentioned previously, a major limitation of 2-nitroimidazole-based hypoxia probes is their susceptibility to oxygen-independent reduction via two-electron processes, such as by bacterial nitroreductases. […] Finally, the photostability of both HyP-1 and red-HyP-1 was evaluated via continuous PA image acquisition at 770 nm over the course of 1 hour.

[2] = system: purified bacterial nitroreductase; experiment: Incubation with purified nitroreductase; type: biochemical; settings: NADH, 37° C., 2 h
Procedure: (§2) FIG. 15. […] For the nitroreductase experiment, HyP-1 (2 μM) was incubated in the presence of nitroreductase (0.5 μg/mL) and NADH (100 μM) in 0.1 M potassium phosphate buffer (pH 7.4) at 37° C. for 2 h. For the bacterial experiment, bacteria were grown overnight, and cells were lysed via sonication. The suspension was centrifuged at 4000 rpm for 10 min, and the supernatant was removed. HyP-1 (2 μM) was incubated with cell lysate solution (1 mL) at 37° C. for 2 h.
as §1

ischemic hindlimb tissue = experiment: In vivo PA imaging of hindlimb ischemia model; parameters: species or system BALB/c mice; settings: intramuscular 50 μL, 50 μM; 1 hour after injection
Procedure: After observing the hypoxia-mediated response of HyP-1 in the hindlimb ischemia model, attention was turned to detecting this response using PA imaging. As described above, surgical ligation was employed to induce ischemia, and HyP-1 (50 μL, 50 μM) was administered via intramuscular injection.
All in vivo imaging experiments were performed with the approval of the Institutional Animal Care and Use Committee of the University of Illinois at Urbana-Champaign, following the principles outlined by the American Physiological Society on research animal use. Female mice (5-6 weeks old) were acquired from The Jackson Laboratory. […] Animals that underwent unsuccessful surgery as determined by laser Doppler perfusion imaging were excluded from analysis.
Prior to imaging, hair was removed from the lower body half by shaving and treating with a topical hair removal cream. Mice were positioned on their sides such that the area to be imaged was directly above the light source. Images were acquired using the Step and Shoot mode with 120 angles and 30 pulses per angle. Data was analysed using OsiriX software. […] ROIs of equal area were drawn to include all visible signal in the image, and mean PA signal in each ROI was recorded. Change in PA signal was calculated by subtracting signal from images taken prior to injection from those at given time points.

rat liver microsomes = experiment: PA response after rat liver microsome incubation, tissue-mimicking phantom; type: biochemical; settings: 2 h incubation with RLM, quenched with acetonitrile
Procedure: FIG. 4. Hypoxia-selective response of HyP-1 in vitro. […] Dashed lines indicate positioning of FEP tubes.
Tissue phantoms were prepared by suspending agarose (4 g) in a solution of 2% milk (2 mL) and deionized H2O (78 mL). The suspension was then heated in a microwave oven until a viscous gel was produced (30-50 seconds). The gel was transferred to a mold made by drilling holes through a 50 mL centrifuge tube and placing FEP tubes (0.08″ diameter) through the holes to create spaces for samples. After cooling the gel for a minimum of 3 hours, the solidified phantom was removed from the mold and cut with a razor blade such that the distance from the sample holes to the phantom's edges was 1.0 cm. To image samples, sample solutions were pipetted into FEP tubing (0.08″ diameter, cut to 10 cm long) which was inserted into the phantom and sealed by folding over the ends and securing with additional tubing (0.12″ diameter, cut to 5 mm long). Images were acquired using the Step and Shoot mode with 120 angles and 10 pulses per angle. Data was analysed using OsiriX Lite software (Version 8.0). Thick slab processing was used to visualize accumulated signal over 5 mm. ROIs of equal area were drawn around areas containing signal, and mean PA signal in each ROI was recorded.

E. coli cell lysates = experiment: Incubation with bacterial cell lysates; type: biochemical; settings: 37° C., 2 h
Procedure: as §2, §1

[3] = Response of probe to Fe(II)
Procedure: FIG. 8. Ratiometric fluorescence turn-on response of HyP-1 (2 μM) in the presence of FeSO4 (20 μM) and FeSO4 (20 μM)+GSH (1 mM) in 50 mM HEPES buffer (pH 7.4, 0.1% v/v CrEL) after 1 h incubation at 37° C.
Fe(II)-mediated reduction of N-oxides has been exploited previously for the development of several fluorescent probes for this metal ion, thus it was critical for us to determine the response of HyP-1 to Fe(II). […] However, because intracellular concentrations of free iron are low due to sequestration by ferritin, this was not anticipated to be a major source of HyP-1 activation in vivo.

[4] = Response to metal ions and reactive oxygen, nitrogen and sulfur species; settings: 2 h, 37° C., phosphate buffer pH 7.4
Procedure: FIG. 9. Ratiometric fluorescent turn-on response of HyP-1 (2 μM) in the presence of various metal ions in 0.1 M potassium phosphate buffer (pH 7.4, 0.1% v/v CrEL) after 2 h incubation at 37° C. Concentrations used were 2 mM for Na^+, Mg^2+, K^+ and Ca^2+, and 50 μM for all other metal ions.
FIG. 10. Ratiometric fluorescence turn-on response of HyP-1 (2 μM) in the presence of various reactive oxygen, nitrogen and sulfur species (100 μM) in 0.1 M potassium phosphate buffer (pH 7.4, 0.1% v/v CrEL) after 2 h incubation at 37° C.
as §1

CC[N+]([O-])(CC)c1ccc(-c2cc(-c3ccccc3)c3n2[B-](F)(F)[N+]2=C(c4ccc(OC)cc4)C=C(c4ccccc4)C2=N3)cc1 [HyP-1, 4-(5,5-difluoro-7-(4-methoxyphenyl)-1,9-diphenyl-5H-5λ^4,6λ^4-dipyrrolo[1,2-c:2′,1′-f][1,3,5,2]triazaborinin-3-yl)-N,N-diethylaniline oxide]
decomposition in human plasma [1]: no substantial decomposition | conversion to red-HyP-1 [2]: minimal conversion | PA signal enhancement, ischemic tissue versus control leg (ischemic hindlimb tissue): 3.1 fold | PA signal (770 nm), hypoxic reaction versus normoxic (rat liver microsomes): 4 fold | conversion to red-HyP-1 (E. coli cell lysates): minimal conversion | ratiometric turn-on ([3]; 20 μM FeSO4 + 1 mM GSH, HEPES buffer, 1 h): 35 fold | ratiometric turn-on ([3]; 20 μM FeSO4 in HEPES buffer, 1-hour incubation): 8 fold | turn-on response to alkali, alkaline earth and transition metals [4]: No significant turn-on
